For assay [1], the target named is Serine/threonine-protein kinase pim-2 (Homo sapiens) (UniProt Q9P1W9). The assay can be described thus: Inhibition of recombinant human Pim2 (2 to end residues) assessed as residual activity at 10 uM using RSRHSSYPAG as substrate incubated for 40 mins in presence of [gamma33P]ATP by scintillation counting based radiometry assay relative to control.
The subject of assay [2] is Serine/threonine-protein kinase B-raf (Homo sapiens), P15056 [V600E]. Nature of the assay: Inhibition of recombinant full length human B-Raf V599E mutant (416 to end residues) assessed as residual activity at 10 uM using myelin basic protein as substrate incubated for 40 mins in presence of [gamma-33ATP] by scintillation counting based radiometry assay relative to control.

Assay [3] addresses Inhibitor of nuclear factor kappa-B kinase subunit alpha (Homo sapiens) (UniProt O15111). The assay can be described thus: Inhibition of full length human IKKalpha assessed as residual activity at 10 uM using peptide as substrate after 40 mins by [gamma-33ATP] radiometric assay relative to control.
Assay [4] deals with RAF proto-oncogene serine/threonine-protein kinase (Homo sapiens), P04049 [Y340D,Y341D]. Nature of the assay: Inhibition of recombinant human C-Raf Y340D/Y341D mutant (306 to end residues) assessed as residual activity at 10 uM poly(Glu, Tyr) 4:1 as substrate incubated 40 mins in presence of [gamma-33ATP] by scintillation counting based radiometry assay relative to control.
For assay [5], the target named is Myosin light chain kinase 2, skeletal/cardiac muscle (Homo sapiens) (UniProt Q9H1R3). The assay can be described thus: Inhibition of recombinant full length human MYLK2 assessed as residual activity at 10 uM using KKLNRTLSFAEPG as substrate measured after 40 mins in presence of [gamma33P]ATP by scintillation counting based radiometry assay relative to control.
In assay [6] the test system is RAC-gamma serine/threonine-protein kinase (Homo sapiens), Q9Y243 [S472D]. The assay can be described thus: Inhibition of recombinant human PKBgamma S472D mutant (117 to end residues) assessed as residual activity at 10 uM using GRPRTSSFAEGKK as substrate incubated for 40 mins in presence of [gamma33P]ATP by scintillation counting based radiometry assay relative to control.

Assay [7] has as its target Beta-adrenergic receptor kinase 1 (Homo sapiens) (UniProt P25098). The assay can be described thus: Inhibition of recombinant full length human GRK2 assessed as residual activity at 10 uM using casein as substrate at 40 mins in presence of [gamma-33ATP] by scintillation counting based radiometry assay relative to control.
The target of assay [8] is CDK12/Cyclin K (Homo sapiens) (UniProt O75909+Q9NYV4). Nature of the assay: Inhibition of recombinant full length human CDK12/cyclinK assessed as residual activity at 10 uM using RSRSRSRSRSRSR as substrate incubated for 40 mins in presence of [gamma-33ATP] by scintillation counting based radiometry assay relative to control. It counts as protein-complex assay.
The target in assay [9] is Serine/threonine-protein kinase PLK3 (Homo sapiens) (UniProt Q9H4B4). Nature of the assay: Inhibition of recombinant human Plk3 (19 to 301 residues) assessed as residual activity at 10 uM using casein as substrate incubated for 40 mins in presence of [gamma33P]ATP by scintillation counting based radiometry assay relative to control.
For the next assay, the species on record is Homo sapiens. Nature of the assay: Inhibition of recombinant human DDR1 V833L mutant (492 to end residues) assessed as residual activity at 10 uM using KKKSPGEYVNIEF as substrate at 40 mins in presence of [gamma-33ATP] by scintillation counting based radiometry assay relative to control.
In assay [10] the test system is Mast/stem cell growth factor receptor Kit (Homo sapiens), P10721 [V654A]. The assay can be described thus: Inhibition of recombinant human C-Kit V654A mutant (544 to end residues) assessed as residual activity at 10 uM poly(Glu, Tyr) 4:1 as substrate incubated 40 mins in presence of [gamma-33ATP] by scintillation counting based radiometry assay relative to control.
Chain of Mast/stem cell growth factor receptor Kit (Homo sapiens), P10721 [V654A] (P10721 whole entry V654A): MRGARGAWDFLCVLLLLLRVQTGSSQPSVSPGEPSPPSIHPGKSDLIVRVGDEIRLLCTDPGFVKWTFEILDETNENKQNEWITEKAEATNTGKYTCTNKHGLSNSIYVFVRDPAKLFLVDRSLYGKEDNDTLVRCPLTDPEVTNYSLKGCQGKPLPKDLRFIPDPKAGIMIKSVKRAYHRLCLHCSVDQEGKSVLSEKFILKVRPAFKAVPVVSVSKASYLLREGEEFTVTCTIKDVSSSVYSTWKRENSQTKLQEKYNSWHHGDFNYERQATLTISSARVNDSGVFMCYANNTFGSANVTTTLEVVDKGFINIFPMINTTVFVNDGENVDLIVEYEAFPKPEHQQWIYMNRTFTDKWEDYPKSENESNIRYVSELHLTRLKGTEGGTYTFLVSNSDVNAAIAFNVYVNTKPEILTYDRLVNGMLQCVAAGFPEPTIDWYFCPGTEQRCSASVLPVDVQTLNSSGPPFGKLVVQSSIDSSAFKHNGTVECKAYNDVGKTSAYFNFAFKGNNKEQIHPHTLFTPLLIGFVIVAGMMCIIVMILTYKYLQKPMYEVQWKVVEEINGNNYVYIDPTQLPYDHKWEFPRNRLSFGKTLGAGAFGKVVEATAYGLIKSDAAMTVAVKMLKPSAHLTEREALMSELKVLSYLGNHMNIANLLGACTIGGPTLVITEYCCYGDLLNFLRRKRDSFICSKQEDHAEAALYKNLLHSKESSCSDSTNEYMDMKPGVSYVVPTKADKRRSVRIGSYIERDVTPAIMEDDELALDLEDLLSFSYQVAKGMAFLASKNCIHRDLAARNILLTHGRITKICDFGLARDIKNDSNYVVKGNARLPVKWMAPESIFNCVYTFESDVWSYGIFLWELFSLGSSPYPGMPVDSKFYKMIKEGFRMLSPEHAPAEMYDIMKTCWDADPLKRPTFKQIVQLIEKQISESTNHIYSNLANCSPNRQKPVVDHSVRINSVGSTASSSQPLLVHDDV

Assay [11] has as its target Calcium/calmodulin-dependent protein kinase type II subunit beta (Homo sapiens) (UniProt Q13554). Nature of the assay: Inhibition of recombinant human CaMK2beta (1 to 315 residues) assessed as residual activity at 10 uM using […] incubated for 40 mins in presence of [gamma-33ATP] by scintillation counting based radiometry assay relative to control.

Assay [12] concerns Serine/threonine-protein kinase Chk2 (Homo sapiens), O96017 [R145W]. Nature of the assay: Inhibition of recombinant human CHK2 R145W mutant (5 to end residues) assessed as residual activity at 10 uM using KKKVSRSGLYRSPSMPENLNRPR as substrate incubated for 40 mins in presence of [gamma-33ATP] by scintillation counting based radiometry assay relative to control.
Chain of Serine/threonine-protein kinase Chk2 (Homo sapiens), O96017 [R145W] (O96017 whole entry R145W): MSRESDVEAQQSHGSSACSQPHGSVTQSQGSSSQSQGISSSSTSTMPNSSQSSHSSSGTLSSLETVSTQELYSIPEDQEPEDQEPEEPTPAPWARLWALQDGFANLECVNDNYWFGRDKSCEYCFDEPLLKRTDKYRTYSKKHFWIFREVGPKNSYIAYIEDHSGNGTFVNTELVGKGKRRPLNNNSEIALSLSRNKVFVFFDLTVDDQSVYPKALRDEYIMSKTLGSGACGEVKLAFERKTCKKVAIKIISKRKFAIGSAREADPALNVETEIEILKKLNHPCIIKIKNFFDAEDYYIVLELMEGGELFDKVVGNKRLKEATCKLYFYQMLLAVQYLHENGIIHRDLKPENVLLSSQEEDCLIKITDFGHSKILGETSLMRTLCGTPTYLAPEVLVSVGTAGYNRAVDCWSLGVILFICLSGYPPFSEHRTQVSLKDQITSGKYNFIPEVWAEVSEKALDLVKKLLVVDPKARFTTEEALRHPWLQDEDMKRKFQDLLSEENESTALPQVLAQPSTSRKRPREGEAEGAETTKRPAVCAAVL
In assay [13] the test system is Tyrosine-protein kinase receptor UFO (Homo sapiens), P30530 [Q764R]. The assay can be described thus: Inhibition of recombinant human Axl Q764R mutant (473 to end residues) assessed as residual activity at 10 uM using KKSRGDYMTMQIG as substrate incubated for 40 mins in presence of [gamma-33ATP] by scintillation counting based radiometry assay relative to control.

In assay [14] the target is Serine/threonine-protein kinase tousled-like 1 (Homo sapiens) (UniProt Q9UKI8). The assay can be described thus: Inhibition of recombinant full-length human TLK1 assessed as residual activity at 10 uM using casein as substrate incubated for 40 mins in presence of [gamma33P]ATP by scintillation counting based radiometry assay relative to control.
Chain of Serine/threonine-protein kinase tousled-like 1 (Homo sapiens) (Q9UKI8 whole entry): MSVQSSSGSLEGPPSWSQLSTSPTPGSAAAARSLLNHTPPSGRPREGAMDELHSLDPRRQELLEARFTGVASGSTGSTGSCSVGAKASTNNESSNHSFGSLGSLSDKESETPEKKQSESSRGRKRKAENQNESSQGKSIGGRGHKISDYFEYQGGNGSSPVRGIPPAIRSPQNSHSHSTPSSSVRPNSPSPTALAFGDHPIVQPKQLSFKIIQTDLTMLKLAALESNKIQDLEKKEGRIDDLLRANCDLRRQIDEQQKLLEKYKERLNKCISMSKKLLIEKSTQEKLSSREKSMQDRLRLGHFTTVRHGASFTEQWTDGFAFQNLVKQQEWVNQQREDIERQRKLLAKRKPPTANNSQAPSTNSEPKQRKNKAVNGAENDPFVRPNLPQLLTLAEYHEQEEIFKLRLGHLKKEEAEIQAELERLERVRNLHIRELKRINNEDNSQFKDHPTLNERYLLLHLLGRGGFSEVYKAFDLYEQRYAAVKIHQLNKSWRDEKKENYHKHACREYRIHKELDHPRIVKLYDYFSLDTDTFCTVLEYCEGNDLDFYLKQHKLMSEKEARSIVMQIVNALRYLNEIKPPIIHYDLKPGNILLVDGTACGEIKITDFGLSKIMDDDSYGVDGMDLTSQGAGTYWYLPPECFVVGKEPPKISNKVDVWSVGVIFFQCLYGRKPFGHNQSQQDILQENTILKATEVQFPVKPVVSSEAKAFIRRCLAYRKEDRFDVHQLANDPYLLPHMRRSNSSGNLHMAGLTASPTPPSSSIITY
Assay [15] has as its target Cyclin-dependent kinase 5/CDK5 activator 1 (Homo sapiens) (UniProt Q00535+Q15078). Nature of the assay: Inhibition of recombinant full length human CDK5/p35 assessed as residual activity at 10 uM using histone H1 as substrate incubated for 40 mins in presence of [gamma-33ATP] by scintillation counting based radiometry assay relative to control. It counts as protein-complex assay.

Assay [16] concerns the target Serine/threonine-protein kinase pim-3 (Homo sapiens) (UniProt Q86V86). Nature of the assay: Inhibition of recombinant human Pim3 (2 to end residues) assessed as residual activity at 10 uM using RSRHSSYPAG as substrate incubated for 40 mins in presence of [gamma33P]ATP by scintillation counting based radiometry assay relative to control.
Assay [17] addresses Dual specificity protein kinase CLK4 (Homo sapiens) (UniProt Q9HAZ1). The assay can be described thus: Inhibition of recombinant human CLK4 (128 to end residues) assessed as residual activity at 10 uM using YRRAAVPPSPSLSRHSSPHQS(p)EDEEE as substrate incubated 40 mins in presence of [gamma-33ATP] by scintillation counting based radiometry assay relative to control.
Assay [18] has as its target Phosphorylase b kinase gamma catalytic chain, skeletal muscle/heart isoform (Homo sapiens) (UniProt Q16816). Nature of the assay: Inhibition of recombinant full-length human PhKgamma1 assessed as residual activity at 10 uM using KKLNRTLSFAEPG as substrate incubated for 40 mins in presence of [gamma33P]ATP by scintillation counting based radiometry assay relative to control.

For assay [19], the target named is Ephrin type-B receptor 4 (Homo sapiens) (UniProt P54760). Nature of the assay: Inhibition of recombinant human EphB4 (561 to end residues) assessed as residual activity at 10 uM using poly(Glu, Tyr) 4:1 as substrate at 40 mins in presence of [gamma-33ATP] by scintillation counting based radiometry assay relative to control.
Chain of Ephrin type-B receptor 4 (Homo sapiens) (P54760 whole entry): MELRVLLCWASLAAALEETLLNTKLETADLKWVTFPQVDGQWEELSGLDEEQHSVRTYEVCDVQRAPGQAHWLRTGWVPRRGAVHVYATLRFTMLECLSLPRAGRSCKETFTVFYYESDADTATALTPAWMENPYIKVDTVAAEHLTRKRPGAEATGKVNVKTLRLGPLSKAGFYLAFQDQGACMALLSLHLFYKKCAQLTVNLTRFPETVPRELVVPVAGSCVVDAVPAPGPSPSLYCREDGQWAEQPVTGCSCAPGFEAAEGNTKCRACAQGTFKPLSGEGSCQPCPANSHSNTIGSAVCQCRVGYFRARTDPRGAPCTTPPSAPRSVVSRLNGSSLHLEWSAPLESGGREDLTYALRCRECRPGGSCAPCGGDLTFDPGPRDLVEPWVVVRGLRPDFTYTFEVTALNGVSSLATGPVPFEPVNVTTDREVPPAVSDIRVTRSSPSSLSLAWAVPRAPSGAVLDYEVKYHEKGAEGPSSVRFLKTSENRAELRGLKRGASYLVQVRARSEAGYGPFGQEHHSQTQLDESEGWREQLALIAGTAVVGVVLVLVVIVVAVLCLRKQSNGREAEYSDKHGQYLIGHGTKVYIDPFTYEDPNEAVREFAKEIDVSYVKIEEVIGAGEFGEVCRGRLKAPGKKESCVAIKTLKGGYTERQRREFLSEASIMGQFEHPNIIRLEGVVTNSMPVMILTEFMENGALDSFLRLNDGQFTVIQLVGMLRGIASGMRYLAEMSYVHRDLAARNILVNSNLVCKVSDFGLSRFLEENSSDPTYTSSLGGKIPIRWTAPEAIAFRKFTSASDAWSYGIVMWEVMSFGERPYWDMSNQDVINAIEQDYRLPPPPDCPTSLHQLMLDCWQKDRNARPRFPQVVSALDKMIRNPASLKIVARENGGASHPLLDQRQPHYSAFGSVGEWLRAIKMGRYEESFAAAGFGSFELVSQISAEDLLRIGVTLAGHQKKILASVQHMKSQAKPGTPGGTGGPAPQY

Chain of Dual specificity protein kinase CLK4 (Homo sapiens) (Q9HAZ1 whole entry, looked up, canonical isoform): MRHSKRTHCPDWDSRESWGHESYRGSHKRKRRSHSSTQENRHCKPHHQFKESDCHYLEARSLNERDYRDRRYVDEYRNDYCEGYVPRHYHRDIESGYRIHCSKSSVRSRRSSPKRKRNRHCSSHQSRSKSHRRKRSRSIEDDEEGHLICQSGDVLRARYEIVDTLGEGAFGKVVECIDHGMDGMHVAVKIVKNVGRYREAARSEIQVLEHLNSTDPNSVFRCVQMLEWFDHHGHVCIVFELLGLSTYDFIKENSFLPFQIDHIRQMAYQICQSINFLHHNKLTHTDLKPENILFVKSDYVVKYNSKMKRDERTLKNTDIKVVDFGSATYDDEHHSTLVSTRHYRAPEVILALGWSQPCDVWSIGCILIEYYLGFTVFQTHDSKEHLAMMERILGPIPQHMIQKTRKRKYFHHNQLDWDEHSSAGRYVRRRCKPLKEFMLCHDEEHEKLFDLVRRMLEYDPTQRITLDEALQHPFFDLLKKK
Chain of Calcium/calmodulin-dependent protein kinase type II subunit beta (Homo sapiens) (Q13554 whole entry, the tested form may be a part): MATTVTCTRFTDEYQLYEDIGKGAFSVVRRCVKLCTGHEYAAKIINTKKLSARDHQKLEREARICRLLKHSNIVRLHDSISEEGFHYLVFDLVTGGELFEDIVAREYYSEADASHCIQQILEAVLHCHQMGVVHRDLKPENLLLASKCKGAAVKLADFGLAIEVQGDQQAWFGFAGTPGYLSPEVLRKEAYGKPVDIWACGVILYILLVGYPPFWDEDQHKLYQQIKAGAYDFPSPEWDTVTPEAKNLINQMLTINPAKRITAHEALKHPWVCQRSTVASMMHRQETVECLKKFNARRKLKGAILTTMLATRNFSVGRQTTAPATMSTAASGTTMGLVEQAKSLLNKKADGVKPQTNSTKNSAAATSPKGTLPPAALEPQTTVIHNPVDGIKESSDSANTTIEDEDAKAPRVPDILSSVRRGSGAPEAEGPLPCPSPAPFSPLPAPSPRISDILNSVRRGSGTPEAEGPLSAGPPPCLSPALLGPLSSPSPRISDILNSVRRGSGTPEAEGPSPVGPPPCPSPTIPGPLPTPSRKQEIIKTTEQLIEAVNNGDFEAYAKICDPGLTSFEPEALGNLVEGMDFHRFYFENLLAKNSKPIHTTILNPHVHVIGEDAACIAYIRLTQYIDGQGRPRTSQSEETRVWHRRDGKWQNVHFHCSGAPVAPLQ

Take `C[C@@H](c1ccccc1)n1nnc2cnc3ccc(-c4cnc5[nH]ccc5c4)cc3c21`: the Activity in assay [1] was 80%; in [2] it was 64%; in assay [3], 90%; in assay [4] it was 77%; in [5] it was 70%; in assay [6], 48%. Moreover, the Activity is 92% in [7]; 83% in assay [8]; 71% in assay [9]; 3% in the assay filed under Homo sapiens; 109% in assay [10]; 85% in [11]. In addition, the Activity is 81% in assay [12]; 64% in assay [13]; 99% in [14]; 84% in assay [15]; 83% in assay [16]; 46% in [17]. The Activity in assay [18] was 70%; in [19], 71%.

For the origin of these results see ChEMBL document CHEMBL4334471, “Discovery of 1,8-disubstituted-[1,2,3]triazolo[4,5-c]quinoline derivatives as a new class of Hippo signaling pathway inhibitors” (Bioorg Med Chem Lett, 2019).
